Converted amounts (≈) assume the structure as drawn.
Assays:
[1] = Metabolic stability in mouse liver microsomes assessed as half-life at 1 uM measured up to 60 mins by LC-MS/MS analysis; type: ADME, Microsome
[2] = Metabolic stability in mouse liver assessed as intrinsic clearance at 1 uM measured up to 60 mins by LC-MS/MS analysis; type: ADME, tissue-based; settings: read-out: CLH
[3] = Metabolic stability in human liver assessed as intrinsic clearance at 1 uM measured up to 30 mins by LC-MS/MS analysis; type: ADME, tissue-based; settings: read-out: CLH
[4] = Metabolic stability in human liver microsomes assessed as half-life at 1 uM measured up to 30 mins by LC-MS/MS analysis; type: ADME, Microsome
[5] = test system: Staphylococcus aureus; experiment: Antibacterial activity against methicillin resistant Staphylococcus aureus USA300 FPR3757 assessed as inhibition of bacterial growth incubated for 20 to 24 hrs by microbroth serial dilution method; type: functional; settings: time 20-24 hrs, read-out: MIC100
[6] = test system: Staphylococcus aureus; experiment: Antibacterial activity against methicillin susceptible Staphylococcus aureus ATCC 29213 assessed as inhibition of bacterial growth incubated for 20 to 24 hrs by microbroth serial dilution method; type: functional; settings: time 20-24 hrs, read-out: MIC100
[7] = test system: Staphylococcus aureus; experiment: Antibacterial activity against methicillin susceptible Staphylococcus aureus ATCC 25923 assessed as inhibition of bacterial growth incubated for 20 to 24 hrs by microbroth serial dilution method; type: functional; settings: time 20-24 hrs, read-out: MIC100
[8] = test system: Staphylococcus aureus; experiment: Antibacterial activity against methicillin resistant Staphylococcus aureus clinical isolate 933010 assessed as inhibition of bacterial growth incubated for 20 to 24 hrs by microbroth serial dilution method; type: functional; settings: time 20-24 hrs, read-out: MIC100
[9] = test system: Streptococcus pneumoniae; experiment: Antibacterial activity against Streptococcus pneumoniae assessed as inhibition of bacterial growth incubated for 20 to 24 hrs by microbroth serial dilution method; type: functional; settings: time 20-24 hrs, read-out: MIC100
[10] = test system: Staphylococcus aureus; experiment: Antibacterial activity against methicillin resistant Staphylococcus aureus clinical isolate 52518 assessed as inhibition of bacterial growth incubated for 20 to 24 hrs by microbroth serial dilution method; type: functional; settings: time 20-24 hrs, read-out: MIC100
[11] = test system: Caco-2; experiment: Cytotoxicity against human Caco-2 cells assessed as reduction in cell viability at 1 to 10 uM measured after 1 to 8 days by Celltiter-Glo reagent based assay; type: toxicity; settings: caco-2, 10 µM, dose lower 1 µM, time lower 1 day, dose upper 10 µM, time upper 8 day
[12] = test system: Enterococcus faecalis; experiment: Antibacterial activity against Enterococcus faecalis assessed as inhibition of bacterial growth incubated for 20 to 24 hrs by microbroth serial dilution method; type: functional; settings: time 20-24 hrs, read-out: MIC100
[13] = test system: MDCK-MDR1; experiment: Cytotoxicity against MDCKII-MDR1 cells assessed as reduction in cell viability at 1 to 10 uM measured after 3 hrs by Celltiter-Glo reagent based assay; type: toxicity, Canis lupus familiaris; settings: dog, mdck-mdr1, 3 h, dose 1-10 µM
[14] = test system: Enterococcus faecium; experiment: Antibacterial activity against vancomycin, ampicillin and ciprofloxacin resistant Enterococcus faecium clinical isolate 1 assessed as inhibition of bacterial growth incubated for 20 to 24 hrs by microbroth serial dilution method; type: functional; settings: time 20-24 hrs, read-out: MIC100
[15] = test system: DU-145; experiment: Cytotoxicity against human DU-145 cells assessed as reduction in cell viability at 1 to 10 uM measured after 3 hrs by Celltiter-Glo reagent based assay; type: toxicity; settings: du-145, 3 h, dose 1-10 µM
[16] = test system: Staphylococcus aureus; experiment: Antibacterial activity against methicillin resistant Staphylococcus aureus clinical isolate 55508 assessed as inhibition of bacterial growth incubated for 20 to 24 hrs by microbroth serial dilution method; type: functional; settings: time 20-24 hrs, read-out: MIC100
[17] = test system: Enterococcus faecium; experiment: Antibacterial activity against vancomycin, ampicillin and ciprofloxacin resistant Enterococcus faecium clinical isolate 5 assessed as inhibition of bacterial growth incubated for 20 to 24 hrs by microbroth serial dilution method; type: functional; settings: time 20-24 hrs, read-out: MIC100
[18] = test system: Staphylococcus aureus; experiment: Antibacterial activity against mupirocin resistant Staphylococcus aureus 4828 assessed as inhibition of bacterial growth incubated for 20 to 24 hrs by microbroth serial dilution method; type: functional; settings: time 20-24 hrs, read-out: MIC100

Structure (SMILES)	half-life at 1 µM [1] [min]	CLint scaled at 1 µM [2] [mL/min/kg]	CLint scaled at 1 µM [3] [mL/min/kg]	half-life at 1 µM [4] [min]	MIC [5] [µg/mL]	MIC [6] [µg/mL]	MIC [7] [µg/mL]	MIC [8] [µg/mL]	MIC [9] [µg/mL]	MIC [10] [µg/mL]	Activity [11]	MIC [12] [µg/mL]	Activity [13]	MIC [14] [µg/mL]	Activity [15]	MIC [16] [µg/mL]	MIC [17] [µg/mL]	MIC [18] [µg/mL]
C=C[C@]1(C)C[C@@H](OC(=O)Cn2cc(-c3ccc(C(O)c4ccc5c(N)ncnn45)nc3)nn2)[C@]2(C)[C@H](C)CC[C@]3(CCC(=O)[C@H]32)[C@@H](C)[C@@H]1O (some centres undefined)	0.74	7450	4730	1.3	0.03 (≈ 0.0449 µM)													
C=C[C@]1(C)C[C@@H](OC(=O)Cn2cc(-c3ccc(Cn4ccnc4)nc3)nn2)[C@]2(C)[C@H](C)CC[C@]3(CCC(=O)[C@H]32)[C@@H](C)[C@@H]1O	2.4	2340	1000	6.2	1 (≈ 1.7 µM)													
C=C[C@]1(C)C[C@@H](OC(=O)CS[C@@H]2CC[C@@H](N)C[C@H]2O)[C@]2(C)[C@H](C)CC[C@]3(CCC(=O)[C@H]32)[C@@H](C)[C@@H]1O [LEFAMULIN]	11.5	478				0.25 (≈ 0.492 µM)	0.12 (≈ 0.236 µM)											
C=C[C@]1(C)C[C@@H](OC(=O)Cn2cc(-c3cncc(C(=O)Nc4ccc(OC)nc4)c3)nn2)[C@]2(C)[C@H](C)CC[C@]3(CCC(=O)[C@H]32)[C@@H](C)[C@@H]1O	0.58	9440	2740	2.3	0.03 (≈ 0.0457 µM)	< 0.015	0.12 (≈ 0.183 µM)	0.06 (≈ 0.0914 µM)	0.5 (≈ 0.761 µM)	0.06 (≈ 0.0914 µM)	Non-toxic	0.12 (≈ 0.183 µM)	Non-toxic	0.12 (≈ 0.183 µM)	Non-toxic	0.06 (≈ 0.0914 µM)	0.12 (≈ 0.183 µM)	0.03 (≈ 0.0457 µM)
C=C[C@]1(C)C[C@@H](OC(=O)Cn2cc(-c3cccc(C(=O)Nc4ncnc5[nH]cnc45)c3)nn2)[C@]2(C)[C@H](C)CC[C@]3(CCC(=O)[C@H]32)[C@@H](C)[C@@H]1O	1.2	4590	2340	2.7	0.12 (≈ 0.18 µM)													
C=C[C@]1(C)C[C@@H](OC(=O)CSC(C)(C)CNC(=O)[C@H](N)C(C)C)[C@]2(C)[C@H](C)CC[C@]3(CCC(=O)[C@H]32)[C@@H](C)[C@@H]1O [VALNEMULIN]	0.78	3530	< 86	> 77.9	0.06 (≈ 0.106 µM)	0.03 (≈ 0.0531 µM)	0.12 (≈ 0.212 µM)	0.25 (≈ 0.443 µM)	0.06 (≈ 0.106 µM)	0.06 (≈ 0.106 µM)		0.03 (≈ 0.0531 µM)		0.015 (≈ 0.0266 µM)		0.12 (≈ 0.212 µM)	0.015 (≈ 0.0266 µM)	0.06 (≈ 0.106 µM)
C=C[C@]1(C)C[C@@H](OC(=O)CS[C@@H]2C[C@H]3CC[C@@H](C2)N3C)[C@]2(C)[C@H](C)CC[C@]3(CCC(=O)[C@H]32)[C@@H](C)[C@@H]1O [RETAPAMULIN]	1.3	2050	2650	2.4	0.25 (≈ 0.483 µM)	0.12 (≈ 0.232 µM)	0.06 (≈ 0.116 µM)	0.5 (≈ 0.966 µM)	0.06 (≈ 0.116 µM)	0.12 (≈ 0.232 µM)		0.12 (≈ 0.232 µM)		0.03 (≈ 0.0579 µM)		0.25 (≈ 0.483 µM)	0.03 (≈ 0.0579 µM)	0.25 (≈ 0.483 µM)
C=C[C@]1(C)C[C@@H](OC(=O)Cn2cc(-c3cncc(NC(=O)c4cnc(OC)cn4)c3)nn2)[C@]2(C)[C@H](C)CC[C@]3(CCC(=O)[C@H]32)[C@@H](C)[C@@H]1O	0.53	> 10000	1090	5.7	0.06 (≈ 0.0912 µM)	0.06 (≈ 0.0912 µM)	0.12 (≈ 0.182 µM)	0.12 (≈ 0.182 µM)	1 (≈ 1.52 µM)	0.06 (≈ 0.0912 µM)	Non-toxic	0.12 (≈ 0.182 µM)	Non-toxic	0.06 (≈ 0.0912 µM)	Non-toxic	0.12 (≈ 0.182 µM)	0.06 (≈ 0.0912 µM)	0.12 (≈ 0.182 µM)
C=C[C@]1(C)C[C@@H](OC(=O)Cn2cc(-c3cncc(C(=O)Nc4ncnc5[nH]cnc45)c3)nn2)[C@]2(C)[C@H](C)CC[C@]3(CCC(=O)[C@H]32)[C@@H](C)[C@@H]1O	1.3	4110	1740	3.6	0.06 (≈ 0.0899 µM)													
C=C[C@]1(C)C[C@@H](OC(=O)Cn2cc(-c3ccc(Cn4cnc5c(N)ncnc54)nc3)nn2)[C@]2(C)[C@H](C)CC[C@]3(CCC(=O)[C@H]32)[C@@H](C)[C@@H]1O	0.58	9510				0.06 (≈ 0.0918 µM)	0.06 (≈ 0.0918 µM)											
